Data as given in the NIST ThermoML archive (doi:10.1016/j.jct.2014.12.011).

Experiment: mn = molality of the nth substance listed, in mol/kg
Conditions: 100 kPa, Liquid, Alternating current cell with electrodes

CCCCCCCCCCCC(=O)[O-].[Na+] [sodium dodecanoate] + O
Conditions	electrical conductivity [S/m]
298.15 K, m1 = 0.01084	0.0726
298.15 K, m1 = 0.01211	0.0809
298.15 K, m1 = 0.01337	0.0892
298.15 K, m1 = 0.01462	0.0974
298.15 K, m1 = 0.01585	0.105
298.15 K, m1 = 0.01707	0.113
298.15 K, m1 = 0.01827	0.121
298.15 K, m1 = 0.01946	0.129
298.15 K, m1 = 0.02064	0.136
298.15 K, m1 = 0.0218	0.143
298.15 K, m1 = 0.02295	0.151
298.15 K, m1 = 0.02408	0.158
298.15 K, m1 = 0.0252	0.165
298.15 K, m1 = 0.02631	0.172
298.15 K, m1 = 0.02741	0.178
298.15 K, m1 = 0.02849	0.183
298.15 K, m1 = 0.02957	0.187
298.15 K, m1 = 0.03063	0.1909
298.15 K, m1 = 0.03168	0.194
298.15 K, m1 = 0.03271	0.198
298.15 K, m1 = 0.03374	0.201
298.15 K, m1 = 0.03476	0.204
298.15 K, m1 = 0.03576	0.207
298.15 K, m1 = 0.03675	0.2102
308.15 K, m1 = 0.01107	0.0928
308.15 K, m1 = 0.01239	0.103
308.15 K, m1 = 0.0137	0.114
308.15 K, m1 = 0.01499	0.125
308.15 K, m1 = 0.01626	0.135
308.15 K, m1 = 0.01752	0.145
308.15 K, m1 = 0.01876	0.155
308.15 K, m1 = 0.01999	0.165
308.15 K, m1 = 0.0212	0.175
308.15 K, m1 = 0.0224	0.185
308.15 K, m1 = 0.02359	0.194
308.15 K, m1 = 0.02476	0.203
308.15 K, m1 = 0.02591	0.212
308.15 K, m1 = 0.02706	0.219
308.15 K, m1 = 0.02819	0.225
308.15 K, m1 = 0.0293	0.231
308.15 K, m1 = 0.03041	0.236
308.15 K, m1 = 0.0315	0.2405
308.15 K, m1 = 0.03257	0.245
308.15 K, m1 = 0.03364	0.249
308.15 K, m1 = 0.0347	0.254
308.15 K, m1 = 0.03574	0.258
308.15 K, m1 = 0.03677	0.262
308.15 K, m1 = 0.03779	0.266
318.15 K, m1 = 0.01302	0.131
318.15 K, m1 = 0.01423	0.142
318.15 K, m1 = 0.01542	0.154
318.15 K, m1 = 0.0166	0.165
318.15 K, m1 = 0.01777	0.176
318.15 K, m1 = 0.01892	0.188
318.15 K, m1 = 0.02006	0.198
318.15 K, m1 = 0.02118	0.209
318.15 K, m1 = 0.02229	0.22
318.15 K, m1 = 0.02339	0.23
318.15 K, m1 = 0.02448	0.24
318.15 K, m1 = 0.02555	0.249
318.15 K, m1 = 0.02661	0.258
318.15 K, m1 = 0.02766	0.265
318.15 K, m1 = 0.0287	0.272
318.15 K, m1 = 0.02972	0.278
318.15 K, m1 = 0.03074	0.283
318.15 K, m1 = 0.03174	0.288
318.15 K, m1 = 0.03274	0.293
318.15 K, m1 = 0.03372	0.298
318.15 K, m1 = 0.03469	0.303
318.15 K, m1 = 0.03565	0.308
318.15 K, m1 = 0.0366	0.312
318.15 K, m1 = 0.03754	0.317
328.15 K, m1 = 0.01297	0.151
328.15 K, m1 = 0.01413	0.164
328.15 K, m1 = 0.01527	0.177
328.15 K, m1 = 0.01641	0.189
328.15 K, m1 = 0.01752	0.202
328.15 K, m1 = 0.01863	0.214
328.15 K, m1 = 0.01972	0.226
328.15 K, m1 = 0.0208	0.238
328.15 K, m1 = 0.02187	0.249
328.15 K, m1 = 0.02292	0.26
328.15 K, m1 = 0.02397	0.271
328.15 K, m1 = 0.025	0.282
328.15 K, m1 = 0.02602	0.293
328.15 K, m1 = 0.02703	0.303
328.15 K, m1 = 0.02802	0.311
328.15 K, m1 = 0.02901	0.319
328.15 K, m1 = 0.02999	0.326
328.15 K, m1 = 0.03095	0.332
328.15 K, m1 = 0.03191	0.338
328.15 K, m1 = 0.03285	0.344
328.15 K, m1 = 0.03379	0.35
328.15 K, m1 = 0.03471	0.355
328.15 K, m1 = 0.03563	0.36
328.15 K, m1 = 0.03653	0.366

CCCCCCCCCC(=O)[O-].[K+] [potassium decanoate] + O
Conditions	electrical conductivity [S/m]
288.15 K, m1 = 0.00932	0.0666
288.15 K, m1 = 0.01855	0.13
288.15 K, m1 = 0.02771	0.19
288.15 K, m1 = 0.03678	0.247
288.15 K, m1 = 0.04578	0.303
288.15 K, m1 = 0.0547	0.358
288.15 K, m1 = 0.06355	0.411
288.15 K, m1 = 0.07232	0.462
288.15 K, m1 = 0.08102	0.511
288.15 K, m1 = 0.08964	0.5603
288.15 K, m1 = 0.09819	0.608
288.15 K, m1 = 0.1067	0.654
288.15 K, m1 = 0.1151	0.698
288.15 K, m1 = 0.1234	0.738
288.15 K, m1 = 0.1317	0.771
288.15 K, m1 = 0.1399	0.8021
288.15 K, m1 = 0.148	0.8314
288.15 K, m1 = 0.1561	0.86
288.15 K, m1 = 0.1641	0.888
288.15 K, m1 = 0.1721	0.915
288.15 K, m1 = 0.1799	0.943
288.15 K, m1 = 0.1878	0.9704
298.15 K, m1 = 0.00998	0.0875
298.15 K, m1 = 0.01987	0.172
298.15 K, m1 = 0.02967	0.251
298.15 K, m1 = 0.03939	0.328
298.15 K, m1 = 0.04902	0.402
298.15 K, m1 = 0.05856	0.474
298.15 K, m1 = 0.06803	0.545
298.15 K, m1 = 0.07741	0.613
298.15 K, m1 = 0.08671	0.679
298.15 K, m1 = 0.09593	0.743
298.15 K, m1 = 0.1051	0.802
298.15 K, m1 = 0.1141	0.858
298.15 K, m1 = 0.1231	0.905
298.15 K, m1 = 0.1321	0.949
298.15 K, m1 = 0.1409	0.99
298.15 K, m1 = 0.1497	1.03
298.15 K, m1 = 0.1583	1.07
298.15 K, m1 = 0.167	1.108
298.15 K, m1 = 0.1755	1.147
298.15 K, m1 = 0.184	1.19
298.15 K, m1 = 0.1924	1.224
298.15 K, m1 = 0.2008	1.26
298.15 K, m1 = 0.209	1.301
308.15 K, m1 = 0.00952	0.101
308.15 K, m1 = 0.01895	0.198
308.15 K, m1 = 0.0283	0.29
308.15 K, m1 = 0.03758	0.379
308.15 K, m1 = 0.04677	0.465
308.15 K, m1 = 0.05588	0.549
308.15 K, m1 = 0.06492	0.631
308.15 K, m1 = 0.07388	0.71
308.15 K, m1 = 0.08277	0.785
308.15 K, m1 = 0.09158	0.8601
308.15 K, m1 = 0.1003	0.931
308.15 K, m1 = 0.109	0.996
308.15 K, m1 = 0.1176	1.05
308.15 K, m1 = 0.1261	1.104
308.15 K, m1 = 0.1346	1.15
308.15 K, m1 = 0.1429	1.201
308.15 K, m1 = 0.1512	1.25
308.15 K, m1 = 0.1595	1.29
308.15 K, m1 = 0.1677	1.342
308.15 K, m1 = 0.1758	1.39
308.15 K, m1 = 0.1838	1.434
308.15 K, m1 = 0.1918	1.48
308.15 K, m1 = 0.1997	1.525
318.15 K, m1 = 0.0099	0.125
318.15 K, m1 = 0.01971	0.243
318.15 K, m1 = 0.02944	0.356
318.15 K, m1 = 0.03908	0.465
318.15 K, m1 = 0.04864	0.571
318.15 K, m1 = 0.05811	0.673
318.15 K, m1 = 0.0675	0.771
318.15 K, m1 = 0.07682	0.867
318.15 K, m1 = 0.08605	0.962
318.15 K, m1 = 0.0952	1.05
318.15 K, m1 = 0.1043	1.135
318.15 K, m1 = 0.1133	1.21
318.15 K, m1 = 0.1222	1.28
318.15 K, m1 = 0.131	1.342
318.15 K, m1 = 0.1398	1.404
318.15 K, m1 = 0.1485	1.46
318.15 K, m1 = 0.1571	1.524
318.15 K, m1 = 0.1657	1.58
318.15 K, m1 = 0.1742	1.641
318.15 K, m1 = 0.1826	1.7
318.15 K, m1 = 0.1909	1.76
318.15 K, m1 = 0.1992	1.815
318.15 K, m1 = 0.2074	1.87
328.15 K, m1 = 0.00972	0.143
328.15 K, m1 = 0.01937	0.279
328.15 K, m1 = 0.02892	0.408
328.15 K, m1 = 0.0384	0.533
328.15 K, m1 = 0.0478	0.654
328.15 K, m1 = 0.05712	0.769
328.15 K, m1 = 0.06636	0.883
328.15 K, m1 = 0.07552	0.994
328.15 K, m1 = 0.08461	1.103
328.15 K, m1 = 0.09362	1.207
328.15 K, m1 = 0.1026	1.305
328.15 K, m1 = 0.1114	1.4
328.15 K, m1 = 0.1202	1.48
328.15 K, m1 = 0.1289	1.55
328.15 K, m1 = 0.1376	1.627
328.15 K, m1 = 0.1462	1.7
328.15 K, m1 = 0.1547	1.77
328.15 K, m1 = 0.1631	1.836
328.15 K, m1 = 0.1715	1.904
328.15 K, m1 = 0.1798	1.97
328.15 K, m1 = 0.188	2.038
328.15 K, m1 = 0.1962	2.106
328.15 K, m1 = 0.2043	2.17
